Results: ChEMBL document CHEMBL1121567, “Synthesis of some 5-phenylhexahydroazepino[4,5-b]indoles as potential neuroleptic agents” (1980)

Experiments:
Rattus norvegicus = assay: Effective dose to block muricidal behavior in rat when administered ip; format: functional
Mus musculus = assay: Effective dose to reverse tetrabenazine ptosis in mouse when administered po; format: functional

| Compound | ED50 (Rattus norvegicus) | ED50 (Mus musculus) |
| --- | --- | --- |
| COc1ccc2[nH]c3c(c2c1)CCN(C)CC3c1ccccc1 (centres undefined) | > 10 mg/kg | 1.9 mg/kg |
| COc1ccc2[nH]c3c(c2c1)CCNCC3c1ccccc1 (centres undefined) | 12.2 mg/kg | > 30 mg/kg |
| CN1CCc2c(n(C)c3ccccc23)C(c2ccccc2)C1 (centres undefined) | > 20 mg/kg | > 30 mg/kg |
| Cn1c2c(c3ccccc31)CCNCC2c1ccccc1 (centres undefined) | > 10 mg/kg | > 30 mg/kg |
| c1ccc(C2CNCCc3c2[nH]c2ccccc32)cc1 (centres undefined) | 2.1 mg/kg | > 30 mg/kg |
| CN(C)CCCN1c2ccccc2CCc2ccccc21 [IMIPRAMINE] | 20.2 mg/kg | 2 mg/kg |
| CN1CCc2c([nH]c3ccccc23)C(c2ccccc2)C1 (centres undefined) | > 10 mg/kg | 1 mg/kg |
